Measured values reported in patent US10398671B2, “Fatty acid formulations and methods of use thereof” (Children's Hospital & Research Center at Oakland, priority 2007, dated 2019).

Legend:
[1] = Plasma alpha-d-tocopherol level, Patient A; type: in vivo, human; conditions: despite high dose supplementation
Description: The vit E dose was increased over several weeks and is now in the range recommended for neurological complications of vit E deficiency (100-200 mg/kg/day alpha-d-tocopherol). Sokol et al. Gastroenterology 1993; 104(6):1727-35. […] All speech therapy and occupational therapy has been phased out due to this rapid and remarkable improvement within 5 months of beginning therapy, at which point it was felt by all evaluators to no longer be necessary.

global apraxia/dyspraxia = assay: Case study Patient A: clinical observation of speech, coordination, tone and sensory symptoms; type: in vivo, human; conditions: for speech clarity and energy level/stamina: coenzyme Q 100 mg/day, vitamin C 250 mg/day and alpha-lipoic acid 300 mg/day added together to regimen, within 1 week
Description: They were placed on omega 3/6/9 fatty acid therapy.
In addition Vitamin K (to prevent adverse effect of vitamin K antagonism by high dose vitamin E), a complete multi-vitamin combination (with selenium, zinc and high B-complex and additional fat soluble vitamins) was also added to the daily regimen.

[2] = cited from earlier work

Cc1c(C)c2c(c(C)c1O)CC[C@@](C)(CCC[C@H](C)CCC[C@H](C)CCCC(C)C)O2 [alpha-d-tocopherol]
change of plasma levels of alpha-d-tocopherol [1]: did not change

COC1=C(OC)C(=O)C(C/C=C(\C)CC/C=C(\C)CC/C=C(\C)CC/C=C(\C)CC/C=C(\C)CC/C=C(\C)CC/C=C(\C)CC/C=C(\C)CC/C=C(\C)CCC=C(C)C)=C(C)C1=O [coenzyme Q, 2,3-dimethoxy-5-methyl-6-polyprenyl-1,4-benzoquinone]
speech clarity and energy level/stamina (global apraxia/dyspraxia): increased clarity of speech and improved energy level/stamina

O=C(O)CCCCC1CCSS1 (stereo not drawn) [lipoic acid, α-lipoic acid]
speech clarity and energy level/stamina (global apraxia/dyspraxia): increased clarity of speech and improved energy level/stamina | pKa [2]: 4.7

C[C@@H]1[C@H](O)[C@@H](C)/C=C/C=C/CC/C=C/C=C/C=C/C=C/C(O[C@H]2O[C@H](C)[C@@H](O)[C@H](N)[C@@H]2O)CC2O[C@](O)(CC(O)C(O)CCC(O)CC(O)CC(O)CC(=O)O[C@H]1C)CC(O)C2C(=O)O (some centres unmarked) [nystatin]
neurologic benefits (global apraxia/dyspraxia): Further neurologic benefits

C[C@]12C=CC(=O)C=C1CC[C@@H]1[C@@H]2C(=O)C[C@@]2(C)[C@H]1CC[C@]2(O)C(=O)CO [prednisone]
speech, coordination and behavior (global apraxia/dyspraxia; oral, used for allergic reactions and asthma exacerbations triggered by food allergy): improvement in speech, coordination and behavior

O=C1O[C@H]([C@@H](O)CO)C(O)=C1O [vitamin C, ascorbic acid]
speech clarity and energy level/stamina (global apraxia/dyspraxia): increased clarity of speech and improved energy level/stamina

Polyenylphosphatidylcholine
stearrhea (fat absorption) (global apraxia/dyspraxia; 3 grams/day, within a week of supplementation): decreased in stearrhea
